Source: publication PMC2954059 (Journal of medicinal chemistry, 2010)
Like-named read-outs stand apart in the source and are kept apart here. Marks after values point to notes of the source that are not given here. Blank lines part the entries; values can stand above or below the compound they belong to.

How the values were obtained:
[1] = Concentrations of 1 in mouse serum and tissue samples by LC-MS/MS; format: in vivo, C57BL/6 mice
[2] = format: in vivo, C57BL/6 mice; details: 24 mg/kg subcutaneous; for Concentration in the mouse brain: N = 3; for Concentration observed in brain, in molar terms: mouse brain, the quantified mouse (4a 8 h, 4d 2 h)
[3] = target: T1, Calpain I from porcine erythrocytes (Sus scrofa, UniProt P35750); test: Calpain I inhibition, fluorogenic Suc-Leu-Tyr-AMC assay, Ki by Dixon plots
T1 sequence (P35750 1-714): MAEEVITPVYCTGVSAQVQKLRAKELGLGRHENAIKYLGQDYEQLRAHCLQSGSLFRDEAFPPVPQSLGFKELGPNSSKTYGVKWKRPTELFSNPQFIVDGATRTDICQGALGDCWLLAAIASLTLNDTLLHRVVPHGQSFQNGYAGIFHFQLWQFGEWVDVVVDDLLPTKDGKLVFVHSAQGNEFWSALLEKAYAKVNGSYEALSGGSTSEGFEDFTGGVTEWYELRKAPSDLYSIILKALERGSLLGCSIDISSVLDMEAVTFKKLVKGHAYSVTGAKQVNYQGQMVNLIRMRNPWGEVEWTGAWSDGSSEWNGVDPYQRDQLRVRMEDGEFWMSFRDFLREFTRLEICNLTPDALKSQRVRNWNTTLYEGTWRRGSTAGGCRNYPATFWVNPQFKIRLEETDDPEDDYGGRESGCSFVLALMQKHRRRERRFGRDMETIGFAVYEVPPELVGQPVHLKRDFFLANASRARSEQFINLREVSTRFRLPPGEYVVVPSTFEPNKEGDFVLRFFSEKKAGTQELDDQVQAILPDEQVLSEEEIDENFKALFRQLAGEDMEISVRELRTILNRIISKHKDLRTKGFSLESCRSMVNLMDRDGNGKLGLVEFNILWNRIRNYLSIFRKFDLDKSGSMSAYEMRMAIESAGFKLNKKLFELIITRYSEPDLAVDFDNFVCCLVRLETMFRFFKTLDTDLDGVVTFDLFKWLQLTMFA
T1 sequence (P04574 1-266 partner): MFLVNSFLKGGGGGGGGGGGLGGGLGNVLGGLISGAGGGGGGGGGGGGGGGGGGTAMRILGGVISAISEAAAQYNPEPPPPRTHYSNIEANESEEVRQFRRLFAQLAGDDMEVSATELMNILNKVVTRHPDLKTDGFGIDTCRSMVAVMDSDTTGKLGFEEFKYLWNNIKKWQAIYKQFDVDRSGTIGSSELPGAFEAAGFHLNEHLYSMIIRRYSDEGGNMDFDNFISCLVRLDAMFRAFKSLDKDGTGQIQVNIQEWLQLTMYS

[4] = target: T2, calpain II from porcine kidney (Sus scrofa, UniProt A6YNL5); test: Calpain II inhibition, fluorogenic Suc-Leu-Tyr-AMC assay, Ki by Dixon plots; format: biochemical; details: selectivity calpain I over calpain II
T2 sequence (A6YNL5 20-700): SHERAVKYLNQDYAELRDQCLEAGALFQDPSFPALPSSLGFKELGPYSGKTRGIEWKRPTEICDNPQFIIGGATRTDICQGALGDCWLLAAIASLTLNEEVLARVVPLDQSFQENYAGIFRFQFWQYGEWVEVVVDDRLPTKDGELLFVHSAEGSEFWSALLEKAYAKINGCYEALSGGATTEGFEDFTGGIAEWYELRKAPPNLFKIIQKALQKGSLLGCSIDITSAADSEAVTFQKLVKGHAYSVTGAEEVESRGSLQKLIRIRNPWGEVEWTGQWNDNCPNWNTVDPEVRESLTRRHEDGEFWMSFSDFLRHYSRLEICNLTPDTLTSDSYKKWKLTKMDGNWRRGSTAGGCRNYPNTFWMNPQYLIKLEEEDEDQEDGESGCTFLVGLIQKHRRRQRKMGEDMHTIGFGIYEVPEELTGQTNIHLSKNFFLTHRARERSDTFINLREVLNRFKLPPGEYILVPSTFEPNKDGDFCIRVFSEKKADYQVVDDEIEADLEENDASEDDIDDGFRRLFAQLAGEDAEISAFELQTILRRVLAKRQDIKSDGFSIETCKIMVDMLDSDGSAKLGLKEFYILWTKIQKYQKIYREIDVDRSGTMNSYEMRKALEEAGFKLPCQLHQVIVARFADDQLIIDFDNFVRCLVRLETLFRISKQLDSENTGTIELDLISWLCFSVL
T2 sequence (P04574 1-266 partner): T1 sequence (P04574 1-266 partner)

[5] = target: Cathepsin B from human liver (Homo sapiens, UniProt P07858); test: Cathepsin B inhibition, fluorogenic Cbz-Arg-Arg-AMC assay, Ki by Dixon plots; format: biochemical

concentration at 1 h ([1]; female, C57BL/6, mouse, liver, heart, kidney, spleen, other: subcutaneous or intravenous, 24 mg/kg): > 500 ng/g
Bioavailability via subcutaneous or oral administration ([1]; mice, 24 mg/kg): good
Detection in the brain ([1]; mice, 24 mg/kg subcutaneous, intravenous or oral): could not be detected
Structure (SMILES): CCC(NC(=O)[C@H](CC(C)C)NC(=O)OCc1ccccc1)C(=O)C(=O)NCCCN1CCOCC1 (stereo partly drawn) [Compound 1, Cbz-Leu-D,L-Abu-CONH-(CH2)3-morpholine]

Concentration in the mouse brain ([2]; 8 hour, numeric value from one mouse, other two NQ): 1.17 ± 0.01 ^b µg/g tissue
Concentration observed in brain, in molar terms [2]: approximately 2 µM
Structure (SMILES): CCC(NC(=O)[C@H](CC(C)C)NC(=O)OCc1ccccc1)C(=O)C(=O)NCCCn1cnc2c(N)ncnc21 (stereo partly drawn) [Compound 4a, 3-(Benzyloxycarbonyl-L-leucylamino)-N-(3-(6-amino-9H-purin-9-yl)propyl)-2-oxopentanamide]

fold less potent than the adenine derivatives [3]: 3- to 8 fold
Structure (SMILES): CCC(NC(=O)[C@H](CC(C)C)NC(=O)OCc1ccccc1)C(=O)C(=O)NCCCn1ccc(N)nc1=O (stereo partly drawn) [Compound 4c]

Concentration in the mouse brain ([2]; 1 hour): could be detected
Concentration in the mouse brain ([2]; 2 hour, numeric value from one mouse, other two NQ): 1.14 ± 0.02 ^b µg/g tissue
Concentration observed in brain, in molar terms [2]: approximately 2 µM
Structure (SMILES): CCC(NC(=O)[C@H](CC(C)C)NC(=O)OCc1ccccc1)C(=O)C(=O)NCCCN1CCN(C)CC1 (stereo partly drawn) [Compound 4d, 3-(Benzyloxycarbonyl-L-leucylamino)-N-(3-(4-methylpiperazin-1-yl)propyl)-2-oxopentanamide]

Structure (SMILES): COc1nc(N)c2ncn(CCCNC(=O)C(=O)C(Cc3ccccc3)NC(=O)[C@H](CC(C)C)NC(=O)OCc3ccccc3)c2n1 (stereo partly drawn) [Compound 5b, 3-(Benzyloxycarbonyl-L-leucylamino)-N-(3-(6-amino-2-methoxy-9H-purin-9-yl)propyl)-2-oxophenylbutanamide]
fold less potent on calpain II than on calpain I [4]: 5 fold

fold less potent than the adenine derivatives [3]: 3- to 8 fold
selectivity for calpain I and calpain II versus cathepsin B [5]: equally potent
Structure (SMILES): CC(C)C[C@H](NC(=O)OCc1ccccc1)C(=O)NC(Cc1ccccc1)C(=O)C(=O)NCCCn1ccc(N)nc1=O (stereo partly drawn) [Compound 5c]

selectivity for calpain I and calpain II versus cathepsin B [5]: good selectivity
Structure (SMILES): CC(C)C[C@H](NC(=O)OCc1ccccc1)C(=O)NC(Cc1ccccc1)C(=O)C(=O)NCCCN1CCN(C)CC1 (stereo partly drawn) [Compound 5d, 3-(Benzyloxycarbonyl-L-leucylamino)-N-(3-(4-methylpiperazin-1-yl)propyl)-2-oxophenylbutanamide]

Structure (SMILES): CC(C)C[C@H](NC(=O)OCc1ccccc1)C(=O)NC(Cc1ccccc1)C(=O)C(=O)NCCCN(C)C (stereo partly drawn) [Compound 5e, 3-(Benzyloxycarbonyl-L-leucylamino)-N-(3-(dimethylamino)propyl)-2-oxophenylbutanamide]
selectivity for calpain I and calpain II versus cathepsin B [5]: good selectivity
fold less potent on calpain II than on calpain I [4]: 3 fold
